Source: patent US9745283B2, “Uracil derivatives as AXL and c-MET kinase inhibitors” (priority 2011, dated 2017)
pIC50: −log10 of the molar value.

Target: recombinant human baculovirus-expressed cMET (Homo sapiens (Human), UniProt P08581)
Assay: C-MET Kinase Assay (HTRF KinEASE)
Format: biochemical
Settings: average of two or more determinations; read-out: c-MET IC50
Method: The cMET kinase assay was performed in 384-well Fluotrac™ 200 HiBase microplates using the HTRF KinEASE™ assay described above for AXL except that the assay volume was reduced to half. Enzyme concentration was 8 ng/mL of recombinant human baculovirus-expressed cMET while the substrate concentrations were 0.1 μM and 0.02 μM for the biotinylated peptide and ATP, respectively. Instead of the Multidrop Combi, the BioRAPTR® FRD microfluidic workstation (Beckman Coulter, Brea, Calif.) was utilized for reagent additions.
Inhibition curves for compounds were generated by plotting percent control activity versus log 10 of the concentration of compound. IC50 values were calculated by nonlinear regression using the sigmoidal dose-response (variable slope) equation in GraphPad Prism as follows: y=bottom+(top−bottom)/(1+10(log IC50−x)*Hill Slope) where y is the % kinase activity at a given concentration of compound, x is the logarithm of the concentration of compound, bottom is the % of control kinase activity at the highest compound concentration tested, and top is the % of control kinase activity at the lowest compound concentration examined. The values for bottom and top were fixed at 0 and 100, respectively.

pIC50 | Structure (SMILES)
7.00 to 8.00 | COc1cc2nccc(Oc3ccc(NC(=O)c4cn(CCCc5ccccc5)c(=O)n(-c5ccc(F)cc5)c4=O)cc3F)c2cc1OC [Example 81, 3-(4-Fluoro-phenyl)-2,4-dioxo-1-(3-phenyl-propyl)-1,2,3,4-tetrahydro-pyrimidine-5-carboxylic acid [4-(6,7-dimethoxy-quinolin-4-yloxy)-3-fluoro-phenyl]-amide]
7.00 to 8.00 | COc1cc2nccc(Oc3ccc(NC(=O)c4cn(C(C(C)=O)C(=O)N(C)C)c(=O)n(-c5ccc(F)cc5)c4=O)cc3F)c2cc1OC (stereo not shown) [Example 84, 1-(1-Dimethylcarbamoyl-2-oxo-propyl)-3-(4-fluoro-phenyl)-2,4-dioxo-1,2,3,4-tetrahydro-pyrimidine-5-carboxylic acid [4-(6,7-dimethoxy-quinolin-4-yloxy)-3-fluoro-phenyl]-amide]
6.00 to 7.00 | COc1cc2nccc(Oc3c(F)cc(NC(=O)c4c[nH]c(=O)n(-c5ccc(F)cc5)c4=O)cc3F)c2cc1OC [Example 89, 3-(4-Fluoro-phenyl)-2,4-dioxo-1,2,3,4-tetrahydropyrimidine-5-carboxylic acid [4-(6,7-dimethoxy-quinolin-4-yloxy)-3,5-difluoro-phenyl]-amide]
7.00 to 8.00 | CCn1cc(C(=O)Nc2ccc(Oc3ccnc4cc(OC)c(OC)cc34)c(F)c2)c(=O)n(CC)c1=O [Example 93, 1,3-Diethyl-2,4-dioxo-1,2,3,4-tetrahydro-pyrimidine-5-carboxylic acid [4-(6,7-dimethoxy-quinolin-4-yloxy)-3-fluoro-phenyl]-amide]
7.00 to 8.00 | COc1cc2nccc(Oc3ccc(NC(=O)c4cn(C(C)C)c(=O)n(C(C)C)c4=O)cc3F)c2cc1OC [Example 94, 1,3-Diisopropyl-2,4-dioxo-1,2,3,4-tetrahydro-pyrimidine-5-carboxylic acid [4-(6,7-dimethoxy-quinolin-4-yloxy)-3-fluoro-phenyl]-amide]
7.00 to 8.00 | COc1cc2nccc(Oc3ccc(NC(=O)c4cn(CC5CC5)c(=O)n(CC5CC5)c4=O)cc3F)c2cc1OC [Example 95, 1,3-Bis-cyclopropylmethyl-2,4-dioxo-1,2,3,4-tetrahydro-pyrimidine-5-carboxylic acid [4-(6,7-dimethoxy-quinolin-4-yloxy)-3-fluoro-phenyl]-amide]
7.00 to 8.00 | C=CCn1cc(C(=O)Nc2ccc(Oc3ccnc4cc(OC)c(OC)cc34)c(F)c2)c(=O)n(CC=C)c1=O [Example 96, 1,3-Diallyl-2,4-dioxo-1,2,3,4-tetrahydro-pyrimidine-5-carboxylic acid [4-(6,7-dimethoxy-quinolin-4-yloxy)-3-fluoro-phenyl]-amide]
6.00 to 7.00 | COc1cc2nccc(Oc3ccc(NC(=O)c4cn(CC=C(C)C)c(=O)n(CC=C(C)C)c4=O)cc3F)c2cc1OC [Example 97, 1,3-Bis-(3-methyl-but-2-enyl)-2,4-dioxo-1,2,3,4-tetrahydro-pyrimidine-5-carboxylic acid [4-(6,7-dimethoxy-quinolin-4-yloxy)-3-fluoro-phenyl]-amide]
7.00 to 8.00 | C#CCn1cc(C(=O)Nc2ccc(Oc3ccnc4cc(OC)c(OC)cc34)c(F)c2)c(=O)n(CC#C)c1=O [Example 98, 2,4-Dioxo-1,3-di-prop-2-ynyl-1,2,3,4-tetrahydro-pyrimidine-5-carboxylic acid [4-(6,7-dimethoxy-quinolin-4-yloxy)-3-fluoro-phenyl]-amide]
7.00 to 8.00 | CCOc1cc2nccc(Oc3ccc(NC(=O)c4nn(CC)c(=O)n(-c5ccc(F)cc5)c4=O)cc3F)c2cc1OCC [Example 109, 2-Ethyl-4-(4-fluorophenyl)-3,5-dioxo-2,3,4,5-tetrahydro[1,2,4]triazine-6-carboxylic acid [4-(6,7-diethoxy-quinolin-4-yloxy)-3-fluoro-phenyl]-amide]
7.00 to 8.00 | COc1cc2nccc(Oc3ccc(NC(=O)c4nn(C)c(=O)[nH]c4=O)cc3F)c2cc1OC [Example 114, 2-Methyl-3,5-dioxo-2,3,4,5-tetrahydro-[1,2,4]triazine-6-carboxylic acid [4-(6,7-dimethoxy-quinolin-4-yloxy)-3-fluoro-phenyl]-amide]
7.00 to 8.00 | COc1cc2nccc(Oc3ccc(NC(=O)c4nn(C)c(=O)n(Cc5cc(C)on5)c4=O)cc3F)c2cc1OC [Example 116, 2-Methyl-4-(5-methyl-isoxazol-3-ylmethyl)-3,5-dioxo-2,3,4,5-tetrahydro-[1,2,4]triazine-6-carboxylic acid [4-(6,7-dimethoxy-quinolin-4-yloxy)-3-fluoro-phenyl]-amide]
6.00 to 7.00 | CCC#CCn1c(=O)c(C(=O)Nc2ccc(Oc3ccnc4cc(OC)c(OC)cc34)c(F)c2)nn(C)c1=O [Example 117, 2-Methyl-3,5-dioxo-4-pent-2-ynyl-2,3,4,5-tetrahydro-[1,2,4]triazine-6-carboxylic acid [4-(6,7-dimethoxy-uinolin-4-yloxy)-3-fluoro-phenyl]-amide]
6.00 to 7.00 | COc1cc2nccc(Oc3ccc(NC(=O)c4nn(C)c(=O)n(CC#CCO)c4=O)cc3F)c2cc1OC [Example 118, 4-(4-Hydroxy-but-2-ynyl)-2-methyl-3,5-dioxo-2,3,4,5-tetrahydro-[1,2,4]triazine-6-carboxylic acid [4-(6,7-dimethoxy-quinolin-4-yloxy)-3-fluoro-phenyl]-amide]
7.00 to 8.00 | COc1cc2nccc(Oc3ccc(NC(=O)c4nn(C)c(=O)n(CCn5cccn5)c4=O)cc3F)c2cc1OC [Example 120, 2-Methyl-3,5-dioxo-4-(2-pyrazol-1-yl-ethyl)-2,3,4,5-tetrahydro-[1,2,4]triazine-6-carboxylic acid [4-(6,7-dimethoxyquinolin-4-yloxy)-3-fluorophenyl]-amide]
6.00 to 7.00 | CCn1c(=O)c(C(=O)Nc2ccc(Oc3ccnc4cc(OC)c(OC)cc34)c(F)c2)nn(C)c1=O [Example 123, 4-Ethyl-2-methyl-3,5-dioxo-2,3,4,5-tetrahydro-[1,2,4]triazine-6-carboxylic acid [4-(6,7-dimethoxyquinolin-4-yloxy)-3-fluoro-phenyl]-amide]
7.00 to 8.00 | C=CCn1c(=O)c(C(=O)Nc2ccc(Oc3ccnc4cc(OC)c(OC)cc34)c(F)c2)nn(C)c1=O [Example 124, 4-Allyl-2-methyl-3,5-dioxo-2,3,4,5-tetrahydro-[1,2,4]triazine-6-carboxylic acid [4-(6,7-dimethoxy-quinolin-4-yloxy)-3-fluoro-phenyl]-amide]
7.00 to 8.00 | COc1cc2nccc(Oc3ccc(NC(=O)c4nn(CC5CC5)c(=O)n(-c5ccc(F)cc5)c4=O)cc3F)c2cc1OC [Example 133, 2-Cyclopropylmethyl-4-(4-fluorophenyl)-3,5-dioxo-2,3,4,5-tetrahydro-[1,2,4]triazine-6-carboxylic acid [4-(6,7-dimethoxy-quinolin-4-yloxy)-3-fluoro-phenyl]-amide]
6.00 to 7.00 | CCn1cc(C(=O)Nc2ccc(Nc3ccnc4cc(OC)c(OC)cc34)cc2)c(=O)n(-c2ccc(F)cc2)c1=O [Example 134, 1-Ethyl-3-(4-fluoro-phenyl)-2,4-dioxo-1,2,3,4-tetrahydro-pyrimidine-5-carboxylic acid [4-(6,7-dimethoxy-quinolin-4-ylamino)-phenyl]-amide]
6.00 to 7.00 | COc1cc2nccc(Nc3ccc(NC(=O)c4cn(C(C)C)c(=O)n(-c5ccc(F)cc5)c4=O)cc3)c2cc1OC [Example 135, 3-(4-Fluorophenyl)-1-isopropyl-2,4-dioxo-1,2,3,4-tetrahydropyrimidine-5-carboxylic acid [4-(6,7-dimethoxyquinolin-4-ylamino)-phenyl]-amide]
6.00 to 7.00 | COc1cc2nccc(Nc3ccc(NC(=O)c4nn(C(C)C)c(=O)n(-c5ccc(F)cc5)c4=O)cc3)c2cc1OC [Example 136, 4-(4-Fluoro-phenyl)-2-isopropyl-3,5-dioxo-2,3,4,5-tetrahydro-[1,2,4]triazine-6-carboxylic acid [4-(6,7-dimethoxy-quinolin-4-ylamino)-phenyl]-amide]
7.00 to 8.00 | CCn1cc(C(=O)Nc2ccc(Sc3ccnc4cc(OC)c(OC)cc34)cc2)c(=O)n(-c2ccc(F)cc2)c1=O [Example 137, 1-Ethyl-3-(4-fluorophenyl)-2,4-dioxo-1,2,3,4-tetrahydro-pyrimidine-5-carboxylic acid [4-(6,7-dimethoxy-quinolin-4-ylsulfanyl)-phenyl]-amide]
7.00 to 8.00 | COc1cc2nccc(Sc3ccc(NC(=O)c4cn(C(C)C)c(=O)n(-c5ccc(F)cc5)c4=O)cc3)c2cc1OC [Example 138, 3-(4-Fluoro-phenyl)-1-isopropyl-2,4-dioxo-1,2,3,4-tetrahydro-pyrimidine-5-carboxylic acid [4-(6,7-dimethoxy-quinolin-4-ylsulfanyl)-phenyl]-amide]
7.00 to 8.00 | COc1cc2ncnc(Oc3ccc(NC(=O)c4cn(C(C)C)c(=O)n(-c5ccc(F)cc5)c4=O)cc3)c2cc1OC [Example 141, 3-(4-Fluoro-phenyl)-1-isopropyl-2,4-dioxo-1,2,3,4-tetrahydro-pyrimidine-5-carboxylic acid [4-(6,7-dimethoxy-quinazolin-4-yloxy)-phenyl]-amide]
7.00 to 8.00 | CCn1cc(C(=O)Nc2ccc(Oc3ncnc4cc(OC)c(OC)cc34)cc2)c(=O)n(-c2ccc(F)cc2)c1=O [Example 142, 1-Ethyl-3-(4-fluorophenyl)-2,4-dioxo-1,2,3,4-tetrahydro-pyrimidine-5-carboxylic acid [4-(6,7-dimethoxy-quinazolin-4-yloxy)-phenyl]-amide]
